Values of other authors, collected in patent publication US20230113077A1, “CONTROLLED RELEASE SELEXIPAG COMPOSITION” (ACTELION PHARMACEUTICALS LTD, priority 2020, published 2023).

Conditions: phase III clinical trial; patients with pulmonary arterial hypertension; selexipag versus placebo

CC(C)N(CCCCOCC(=O)NS(C)(=O)=O)c1cnc(-c2ccccc2)c(-c2ccccc2)n1 [selexipag, 2-{4-[N-(5,6-diphenylpyrazin-2-yl)-N-isopropylamino]butyloxy}-N-(methylsulfonyl)acetamide]
risk of the primary composite end point of death or a complication related to pulmonary arterial hypertension: significantly lower
